Assay results from patent publication US6232345A, “Cerebral function improving agents” (Shimizu Pharmaceutical Co., Ltd., priority 1995, dated 2001).
Several values for one entry are separate records, joined by “and”; a condition that tells them apart may be missing. Equal entries are not always repeated. Where two headings read alike, the source gives them in different places.

Experiments:
[1] = test system: cerebral edema induced by ligation and severing of the bilateral common carotid arteries; assay: Cerebral edema suppressing effect: cerebral water content after ligation and severing of the bilateral common carotid arteries (Examples 1-3); assay type: in vivo, male Wistar rats
Text: (§1) Rats were operated on under anesthesia which was introduced with ether and maintained by inhalation of a mixture of isoflurane/nitrous oxide/oxygen (0.5:70:30). A midline incision was made in the neck and the connective tissue was carefully dissected to avoid injury to the vagus nerve while exposing the bilateral common carotid arteries.
For test drug administration, the right external jugular vein was cannulated and the other end of the cannula was led out through the back of the animal. Then the common carotid artery was ligated at two points (head side and heart side) and severed between the two ligatures. […]
In sham-operated rats, the bilateral common carotid arteries were exposed in the same way and the skin incision was closed without arterial ligation and severing.
On completion of administration, each rat was decapitated, and the whole brain was isolated immediately. After removal of the cerebellum and the medulla oblongata, the wet weight of the cerebrum was measured. […] The cerebral water content was calculated by using the following formula:
Cerebral water content (%)=(wet weight of the cerebrum-dry weight of the cerebrum)/wet weight of the cerebrum×100. […]

[2] = test system: KCN-induced death; assay type: in vivo, male Wistar rats; settings: for survival time after KCN: KCN 3 mg/kg, mean ± S.E.
[3] = test system: bilateral common carotid artery ligation (BLCL); assay: Cerebral metabolic activation: cerebral water and electrolyte content in rats with bilateral common carotid artery ligation (Example 5); assay type: in vivo, male Wistar rats; settings: 25 mg/kg/hr i.v. infusion for 5 hours, n = 9, mean ± S.E.
Description: Male Wistar rats purchased from Japan S.L.C., Ltd. were used after a 1-week acclimatization period. The animals were maintained at 23±2° C. and 55±10% humidity with lights on for 12 hours daily (from 7:00 to 19:00). They were fed a pellet diet (MF, Oriental Yeast Co., Ltd.) and tap water ad libitum. Their weight averaged 172.1±6.7 g at the time of the study.
Sodium β-hydroxybutyrate (BHBNa).
The dose of BHBNa tested was 25 mg/kg/hr. The test group was treated with a 20 mM BHBNa solution, while the control group received physiological saline. In both groups, administration was performed at a rate of 10 ml/kg/hr for 5 hours.
Rats were operated on under anesthesia which was introduced with ether and maintained by inhalation of a mixture of isoflurane/nitrous oxide/oxygen (0.5:70:30). A midline incision was made in the neck. The connective tissue was dissected carefully to avoid injury to the vagus nerves while exposing the bilateral common carotid arteries. The right external jugular vein was cannulated and the other end of the cannula was led out through the back. Each of the exposed common carotid arteries was ligated at two points (head side and heart side) and severed between the two ligatures. The skin incision was sutured and each rat was immediately given the test drug or physiological saline by continuous intravenous infusion using an infusion pump at a rate of 10 ml/kg/hr for 5 hours. In sham-operated rats, the bilateral common carotid arteries were exposed in the same way and the skin incision was closed without arterial ligation and severing. After completion of administration, each animal was sacrificed by decapitation and the whole brain was immediately isolated. After removal of the cerebellum and the medulla oblongata, the wet weight of the cerebrum was measured. The cerebrum was then dried at 105° C. for 24 hours and the dry weight was measured. The cerebral water content was calculated by using the following formula: […]
Data are expressed as the mean±standard error (S.E.). […]

[4] = test system: cerebral ischemia model (BLCL); assay: Cerebral ATP and lactate levels in rats with BLCL (Example 6); assay type: in vivo, male Wistar rats
Text: as §1
For test drug administration, the right external jugular vein was cannulated and the other end of the cannula was led out through the back of the animal. Then the common carotid artery was ligated at two points (head side and heart side) and severed between the two ligatures.
The level of significance was set at p<0.05.

[5] = test system: normal rats without BLCL; assay: Cerebral ATP and lactate levels in normal rats without BLCL (Example 6); assay type: in vivo, male Wistar rats; settings: continuous infusion for 3 hours
Description: Male Wistar rats (Japan S.L.C., Ltd.) were used in the study. The animals were maintained at 23±3° C. and 55±15% humidity with lights on for 12 hours daily (from 7:00 to 19:00). They were fed a pellet diet (MF, Oriental Yeast Co., Ltd.) and tap water ad libitum. Their weight ranged from 161.7 to 249.0 g at the time of the study.
Exactly 0.2 g of BHBNa was weighed and dissolved in distilled water for injection to make a final volume of 10 ml. To 9 ml of this solution, physiological saline was added to make up 30 ml. The 0.6% BHBNa solution thus obtained was sterilized by filtration through DISMIC-25CS ([…], ADVANTEC Toyo) prior to use.
After 3 hours of cerebral ischemia, the head of each rat was irradiated with microwaves (5 kW) for 2 seconds using a microwave applicator (TMW6402C, Toshiba) to terminate all enzyme reactions and the production/degradation of metabolites in the brain tissue. […] The weight of the cerebrum was calculated from the difference of the weight of the test tube measured as above.
The cerebral ATP level was determined by an enzymatic method (the luciferin-luciferase method) by using Lumat LB9507 (EG&G BERTHOLD). The data obtained were expressed as μmoles/wet weight g.
The cerebral lactate level was determined by an enzymatic method (lactate dehydrogenase method) by using Determiner LA (Kyowa Medics). The data obtained were expressed as μmoles/wet weight g. […]

[6] = test system: middle cerebral artery occlusion/reperfusion model; assay: Cerebral infarction reducing effect: middle cerebral artery occlusion/reperfusion model (Example 7); assay type: in vivo, male Wistar rats
Description: Male Wistar rats aged 8 weeks (Charles River Japan, Inc.) were used in the study. […] They were fed a pellet diet (MF, Oriental Yeast Co., Ltd.) and tap water ad libitum.
Exactly 0.2 g of BHBNa was weighed and dissolved in distilled water for injection to make up a final volume of 10 ml. To 9 ml of this solution, physiological saline was added to make up 30 ml.
Under ether anesthesia, a midline incision was made in the neck. The incision reached the right carotid bifurcation while avoiding injury to the vagus nerve. Around the bifurcation, the common carotid artery and the external carotid artery were separated from surrounding connective tissue and adipose tissue. […] The external carotid artery was then double ligated with 5-0 silk and cut In addition, the right internal carotid artery was dissected out from the surrounding connective tissue to expose the pterygopalatine artery. The external carotid artery was incised, and an embolizing thread was inserted via this incision to a distance of 21 mm into the internal carotid artery. The tip of the thread went beyond the origin of the middle cerebral artery and entered the anterior cerebral artery by about 1-2 mm, so that the middle cerebral artery was occluded by the central portion of the thread.
In sham-operated rats, the skin incision was closed without inserting any embolizing thread into the internal carotid artery. The rats were then maintained until the scheduled time of sacrifice.
After the middle cerebral artery was occluded with an embolizing thread for 2 hours, the thread was removed under ether anesthesia to allow reperfusion.
Immediately after insertion of the embolizing thread, the rats were given a continuous infusion of physiological saline or 0.6% BHBNa solution via a cannula inserted into a femoral vein on the previous day. Administration was performed at a rate of 5 ml/kg/hr using an infusion pump and was continued until the scheduled time of sacrifice (24 hours after reperfusion).
Each rat was sacrificed at 24 hours after reperfusion. The cerebrum was isolated, and cut into 2 mm coronal sections by using a Brain Slicer (MUROMACHI KIKAI Co., Ltd.) from a point 7 mm behind the edge of the forebrain to the interauricular line (telencephalon). The brain sections were stained to detect normal mitochondria by total immersion for 30 min in a 2% solution of 2,3,5-triphenyltetrazolium chloride (TTC) in physiological saline. […]
Photographs of the TTC-stained coronal sections of the cerebrum were scanned by using an film scanner and the data were processed with image analyzing software (NIH Image). The percent infarcted area (mitochondria death) on each cerebral section was calculated from the total area of the unstained regions relative to the entire area of the section.

[7] = test system: Wistar or SD rats; assay: Single dose toxicity study (Example 8); assay type: in vivo, Wistar or SD rats of both sexes; settings: 2000 mg/kg, oral or intravenous
Description: (1) BHBNa was orally or intravenously administered to Wistar or SD rats of both sexes at a single dose of 2000 mg/kg.

[8] = test system: Wistar or SD rats; assay: 2-week repeated dose toxicity study (Example 8); assay type: in vivo, male Wistar or SD rats; settings: 500 mg/kg-2000 mg/kg, oral or intravenous, 2 weeks
Text: (2) BHBNa was repeatedly administered orally or intravenously to male Wistar or SD rats for 2 weeks.

[9] = Stability of test drug and prepared solutions; assay type: physicochemical
[10] = cited from earlier work
[11] = test system: acute cerebral injury; settings: intravenous, after acute cerebral injury; cited from earlier work

In the case of `CC(O)CC(=O)[O-].[Na+]` (stereo not drawn), the “relation of cerebral water content to dose” value ([1]; FIG. 1, i.v. infusion for 5 hours) is reported as “related to the dose”, the “statistical significance of lower cerebral water content vs. physiological saline group” value ([1]; by dose, i.v. infusion 10 ml/kg/hr for 5 hours) is reported as “statistically significant (p<0.01) at doses of 5 mM or more” and the “cerebral water content vs. physiological saline group” value ([1]; sodium β-hydroxybutyrate 3.1-400 mg/kg/hr (2.5-320 mM, 10 ml/kg/hr) i.v. infusion for 5 hours, FIG. 1) is reported as “lower than in the physiological saline group”. The “survival time after KCN” value ([2]; 50 mg/kg/hr for 1 hour i.v., saline 44.6±1.6 sec, FIG. 2) was 58.8 ± 2.4 s, the “survival time after KCN” value ([2]; 100 mg/kg/hr for 1 hour i.v. (duration comparison), FIG. 3) was 58.2 ± 2.2 s and the “survival time after KCN” value ([2]; 100 mg/kg/hr for 1 hour i.v., saline 44.6±1.6 sec, FIG. 2) was 58.8 ± 1.2 s. For the same molecule, the “survival time after KCN” value ([2]; 100 mg/kg/hr for 3 hours i.v., FIG. 3) was 61.0 ± 1.6 s, the Cerebral water content ([3]; P < 0.01 vs. physiological saline (81.96 ± 0.21)) was 79.50 ± 0.09% and the “Na^+ content” value ([3]; cerebral, P < 0.01 vs. physiological saline (304.39 ± 12.83)) was 269.74 ± 15.98 mEq/kg dry weight. The “K^+ content” value ([3]; cerebral, physiological saline 405.99 ± 20.96, not significantly different) was 420.42 ± 5.76 mEq/kg dry weight, the “cerebral ATP level” value ([4]; 3 hours of BLCL, BHBNa 30 mg/kg/hr, mean±S.E., saline 0.52±0.10, sham 1.85±0.13) was 1.56±0.10 μmoles/wet weight g and the cerebral lactate level ([4]; 3 hours of BLCL, BHBNa 30 mg/kg/hr, mean±S.E., saline 11.39±0.85, sham 0.61±0.12) was 1.36±0.17 μmoles/wet weight g. For the same molecule, the “cerebral ATP level in normal rats” value [5] was “no significant effect”, the “cerebral lactate level in normal rats” value [5] was “no significant effect” and the “localization of infarct foci” value ([6]; 30 mg/kg/hr continuous infusion) was “Most infarct foci were localized in the central ischemic zone and few extended to the surrounding regions”. The Infarction % ([6]; 30 mg/kg/hr i.v. infusion from arterial occlusion (2 hours) to 24 hours after reperfusion, n = 4, saline 35.18±2.69%, listed as BHBNa) was 18.99% and 18.99 ±1.59%, the single dose toxicity [7] was “survived without any abnormal findings” and the repeated dose toxicity [8] was “survived without any abnormal findings”. For the same molecule, the “stability of prepared solution” value [9] was “at least 1 week”, the stability on storage [9] was 5 months and the “changes in quality of the lot used in the study” value ([9]; tested after completion of the study) was “no changes in quality”.
With `CC(O)CC(=O)O` (stereo not drawn) [β-hydroxybutyric acid] the “increase in cerebral water content induced by BLCL for 6 hours” value ([1]; at the doses tested in Example 4 (50 and 100 mg/kg/hr)) was “significantly suppressed”, the “development of cerebral edema (summary)” value ([1]; simultaneous intravenous administration, ligation of bilateral common carotid arteries) was “prevented the development of cerebral edema” and the “survival time after lethal KCN (summary)” value ([2]; intravenous pretreatment) was “prolonged the survival time”. For the same molecule, the “cerebral ATP levels (summary)” value ([4]; ligation of bilateral common carotid arteries) was “high cerebral ATP levels were maintained”, the “extent of cerebral infarction (summary)” value ([6]; administration during ligation of the middle cerebral artery and subsequent reperfusion) was “markedly reduced” and the water solubility [10] was “water-soluble”. The “ketone level in the cerebrospinal fluid” value [11] was “increased” and the “lactate level in the cerebrospinal fluid” value [11] was “decreased”.
In the case of `COC(=O)CC(C)O` (stereo not drawn) [methyl β-hydroxybutyrate], the “cerebral water content vs. physiological saline-treated group” value ([1]; parenteral solution with methyl β-hydroxybutyrate 2.42 g/l, NaCl, KCl, glucose) is reported as “lower than in the physiological saline-treated group”.
